Laboratory results from patent US8822517B2, “Arylosulfonamides for the treatment of CNS diseases” (Adamed SP. Z O.O., priority 2010, dated 2014).

Legend:
dopaminergic D3 receptor = dopaminergic D3 receptor (Homo sapiens, UniProt P35462); assay: Binding assay D3 (h), [3H]methyl-spiperone, CHO cells; design: expressed in transfected cells; host or cells: CHO cells; conditions: read-out: D3 [%]
Summary of the method: (§1)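 At 1×10^−6 M, compounds were assessed for their effect on specific radioligand binding, computed as total less nonspecific binding (excess unlabelled ligand present).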

[1] = target: serotoninergic 5-HT2A receptor (Homo sapiens, UniProt P28223); assay: Binding assay 5-HT2A (h), [3H]ketanserin, HEK-293 cells; design: expressed in transfected cells; host or cells: HEK-293 cells; conditions: read-out: 5-HT2A
serotoninergic 5-HT2A receptor, sequence (P28223 whole entry): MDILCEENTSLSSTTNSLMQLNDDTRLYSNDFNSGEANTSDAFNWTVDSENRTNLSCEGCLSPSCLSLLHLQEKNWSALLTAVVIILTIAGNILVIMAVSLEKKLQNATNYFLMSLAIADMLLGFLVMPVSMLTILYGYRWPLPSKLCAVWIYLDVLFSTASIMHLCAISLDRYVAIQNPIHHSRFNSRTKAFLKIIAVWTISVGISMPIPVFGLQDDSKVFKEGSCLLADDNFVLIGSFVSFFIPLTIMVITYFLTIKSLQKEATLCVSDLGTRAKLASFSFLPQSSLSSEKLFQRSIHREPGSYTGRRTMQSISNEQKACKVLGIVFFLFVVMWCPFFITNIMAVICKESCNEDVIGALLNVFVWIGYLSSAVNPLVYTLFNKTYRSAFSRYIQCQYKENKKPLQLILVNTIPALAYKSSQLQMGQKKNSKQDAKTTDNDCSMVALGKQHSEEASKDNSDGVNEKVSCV
Summary of the method: as §1

[2] = target: T1, serotonine transporter (SERT) receptor (Homo sapiens, UniProt P31645); assay: Binding assay SERT (h), [3H]imipramine, CHO cells; conditions: read-out: SERT [%]
T1 construct: expressed in transfected cells; host or cells: CHO cells
T1 sequence (P31645 whole entry): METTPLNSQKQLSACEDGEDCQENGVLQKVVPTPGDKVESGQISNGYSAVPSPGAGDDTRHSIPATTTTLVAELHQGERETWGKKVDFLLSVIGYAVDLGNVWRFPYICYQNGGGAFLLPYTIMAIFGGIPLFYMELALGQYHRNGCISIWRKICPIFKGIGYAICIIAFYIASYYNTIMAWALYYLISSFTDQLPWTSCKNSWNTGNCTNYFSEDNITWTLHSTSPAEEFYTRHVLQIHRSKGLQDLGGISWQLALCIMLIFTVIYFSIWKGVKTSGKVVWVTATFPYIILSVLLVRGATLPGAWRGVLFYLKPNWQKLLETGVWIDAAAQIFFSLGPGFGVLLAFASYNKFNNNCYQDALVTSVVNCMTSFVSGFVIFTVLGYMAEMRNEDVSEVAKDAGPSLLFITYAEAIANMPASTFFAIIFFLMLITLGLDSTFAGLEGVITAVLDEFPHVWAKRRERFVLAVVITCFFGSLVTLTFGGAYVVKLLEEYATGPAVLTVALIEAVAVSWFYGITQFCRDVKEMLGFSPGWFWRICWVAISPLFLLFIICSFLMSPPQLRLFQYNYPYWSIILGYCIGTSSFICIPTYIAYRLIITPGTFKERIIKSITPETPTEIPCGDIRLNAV
Summary of the method: as §1

adrenergic α1 receptor = assay: Binding assay α1 (non-selective), [3H]prazosin, rat cerebral cortex; conditions: percent inhibition of control specific binding; compounds tested at 1×10^−6 M
Summary of the method: as §1

[3] = target: serotoninergic 5-HT7 receptor (Homo sapiens, UniProt P34969); assay: Binding assay 5-HT7 (h), [3H]LSD, CHO cells; design: expressed in transfected cells; host or cells: CHO cells; conditions: read-out: 5-HT7
serotoninergic 5-HT7 receptor, sequence (P34969 whole entry): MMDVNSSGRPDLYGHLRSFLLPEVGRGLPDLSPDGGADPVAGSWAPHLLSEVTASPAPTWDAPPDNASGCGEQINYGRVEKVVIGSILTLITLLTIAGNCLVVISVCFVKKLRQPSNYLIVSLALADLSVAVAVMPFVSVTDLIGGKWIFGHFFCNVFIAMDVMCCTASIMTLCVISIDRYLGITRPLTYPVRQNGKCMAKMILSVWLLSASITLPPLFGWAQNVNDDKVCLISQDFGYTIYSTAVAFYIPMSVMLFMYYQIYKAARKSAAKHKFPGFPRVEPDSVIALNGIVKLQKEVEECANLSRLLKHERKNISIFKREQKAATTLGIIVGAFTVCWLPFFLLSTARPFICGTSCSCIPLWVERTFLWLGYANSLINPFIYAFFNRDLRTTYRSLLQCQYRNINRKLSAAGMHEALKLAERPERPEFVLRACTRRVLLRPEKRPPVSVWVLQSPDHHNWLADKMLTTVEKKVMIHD
Summary of the method: as §1

dopaminergic D2 receptor = dopaminergic D2 receptor (Homo sapiens, UniProt P14416); assay: Binding assay D2S (h), [3H]methyl-spiperone, HEK-293 cells; design: expressed in transfected cells; host or cells: HEK-293 cells; conditions: read-out: D2 [%]
dopaminergic D2 receptor, sequence (P14416 1-414 isoform P14416-2): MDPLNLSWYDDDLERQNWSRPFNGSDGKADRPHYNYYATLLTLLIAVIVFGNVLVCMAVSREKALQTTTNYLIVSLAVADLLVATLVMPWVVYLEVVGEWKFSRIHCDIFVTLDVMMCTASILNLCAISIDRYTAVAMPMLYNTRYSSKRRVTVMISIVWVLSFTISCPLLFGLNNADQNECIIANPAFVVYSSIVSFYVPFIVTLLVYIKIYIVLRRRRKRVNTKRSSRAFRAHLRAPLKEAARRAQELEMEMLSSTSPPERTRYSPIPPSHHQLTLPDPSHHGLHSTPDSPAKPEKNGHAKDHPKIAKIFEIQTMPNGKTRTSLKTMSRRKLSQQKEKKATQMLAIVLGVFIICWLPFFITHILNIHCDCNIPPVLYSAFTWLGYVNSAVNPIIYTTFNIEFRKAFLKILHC
Summary of the method: as §1

[4] = target: serotoninergic 5-HT6 receptor (Homo sapiens, UniProt P50406); assay: Binding assay 5-HT6 (h), [3H]LSD, CHO cells; design: expressed in transfected cells; host or cells: CHO cells; conditions: read-out: 5-HT6
serotoninergic 5-HT6 receptor, sequence (P50406 whole entry): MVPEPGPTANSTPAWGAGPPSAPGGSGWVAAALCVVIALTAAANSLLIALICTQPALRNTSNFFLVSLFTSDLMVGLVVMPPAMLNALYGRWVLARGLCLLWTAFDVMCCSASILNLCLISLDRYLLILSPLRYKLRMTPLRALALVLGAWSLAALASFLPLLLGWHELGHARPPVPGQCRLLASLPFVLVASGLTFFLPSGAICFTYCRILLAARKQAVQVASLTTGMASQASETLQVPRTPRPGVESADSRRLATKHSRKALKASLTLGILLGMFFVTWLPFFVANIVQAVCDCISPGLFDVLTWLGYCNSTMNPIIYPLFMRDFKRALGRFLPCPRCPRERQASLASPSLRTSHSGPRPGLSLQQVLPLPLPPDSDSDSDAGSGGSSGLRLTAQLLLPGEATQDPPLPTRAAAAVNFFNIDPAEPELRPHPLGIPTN
Summary of the method: as §1

[5] = target: T2, serotoninergic 5-HT1A receptor (Homo sapiens, UniProt P08908); assay: Binding assay 5-HT1A (h), [3H]8-OH-DPAT, HEK-293 cells; design: expressed in transfected cells; host or cells: HEK-293 cells; conditions: read-out: 5-HT1A
T2 sequence (P08908 1-422): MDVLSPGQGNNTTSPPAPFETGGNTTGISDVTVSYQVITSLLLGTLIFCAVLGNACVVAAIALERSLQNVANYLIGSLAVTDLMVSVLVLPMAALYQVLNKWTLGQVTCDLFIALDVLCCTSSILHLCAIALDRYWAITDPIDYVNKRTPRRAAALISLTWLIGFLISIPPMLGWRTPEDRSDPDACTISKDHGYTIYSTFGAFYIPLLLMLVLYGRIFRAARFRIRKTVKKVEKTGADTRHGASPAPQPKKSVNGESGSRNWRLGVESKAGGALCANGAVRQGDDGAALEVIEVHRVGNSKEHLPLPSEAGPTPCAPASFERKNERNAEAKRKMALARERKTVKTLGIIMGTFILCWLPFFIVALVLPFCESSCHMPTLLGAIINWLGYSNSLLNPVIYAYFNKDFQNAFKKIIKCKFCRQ
Summary of the method: as §1

dopaminergic D3 receptor, sequence (P35462 whole entry): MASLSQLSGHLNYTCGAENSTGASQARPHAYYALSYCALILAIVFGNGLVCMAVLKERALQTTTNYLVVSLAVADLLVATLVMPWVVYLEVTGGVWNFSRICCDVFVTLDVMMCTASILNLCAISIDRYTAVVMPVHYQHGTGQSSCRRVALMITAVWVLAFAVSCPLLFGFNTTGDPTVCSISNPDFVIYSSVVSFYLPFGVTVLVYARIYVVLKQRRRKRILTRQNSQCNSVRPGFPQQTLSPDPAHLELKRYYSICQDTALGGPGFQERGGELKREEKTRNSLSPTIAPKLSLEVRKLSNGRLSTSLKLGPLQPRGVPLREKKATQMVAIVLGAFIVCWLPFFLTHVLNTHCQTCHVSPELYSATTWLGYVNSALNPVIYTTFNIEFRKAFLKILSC

O=S(=O)(NCCCN1CCN(c2cccc3c2OCCO3)CC1)c1cccc(F)c1 [Compound 409, N-[3-[4-(2,3-Dihydro-1,4-benzodioxin-5-yl)piperazin-1-yl]propyl]-3-fluorobenzenesulphonamide]
inhibition at 1 µM (dopaminergic D3 receptor): 85% | inhibition at 1 µM [1]: 66% | inhibition at 1 µM [2]: 2% | α1 [%] (adrenergic α1 receptor): 81% | inhibition at 1 µM [3]: 91% | inhibition at 1 µM (dopaminergic D2 receptor): 79% | inhibition at 1 µM [4]: -9% | inhibition at 1 µM [5]: 81%

O=S(=O)(NCCCN1CCN(c2cccc3c2OCCO3)CC1)c1cccc(Cl)c1 [Compound 411, 3-Chloro-N-[3-[4-(2,3-dihydro-1,4-benzodioxin-5-yl)piperazin-1-yl]propyl]benzenesulphonamide]
inhibition at 1 µM (dopaminergic D3 receptor): 52% | inhibition at 1 µM [1]: 4% | inhibition at 1 µM [2]: 12% | α1 [%] (adrenergic α1 receptor): 87% | inhibition at 1 µM [3]: 89% | inhibition at 1 µM (dopaminergic D2 receptor): 40% | inhibition at 1 µM [4]: 41% | inhibition at 1 µM [5]: 95%

Cc1cccc(S(=O)(=O)NCCCN2CCN(c3cccc4c3OCCO4)CC2)c1 [Compound 414, N-[3-[4-(2,3-Dihydro-1,4-benzodioxin-8-yl)piperazin-1-yl]propyl]-3-methylbenzenesulphonamide]
inhibition at 1 µM (dopaminergic D3 receptor): 81% | inhibition at 1 µM [1]: 76% | inhibition at 1 µM [2]: 18% | α1 [%] (adrenergic α1 receptor): 88% | inhibition at 1 µM [3]: 94% | inhibition at 1 µM (dopaminergic D2 receptor): 48% | inhibition at 1 µM [4]: -15% | inhibition at 1 µM [5]: 98%

O=S(=O)(NCCCN1CCN(c2cccc3c2OCCO3)CC1)c1ccc(-c2ccccc2)cc1 [Compound 415, N-[3-[4-(2,3-Dihydro-1,4-benzodioxin-5-yl)piperazin-1-yl]propyl]-4-phenylbenzenesulphonamide]
inhibition at 1 µM (dopaminergic D3 receptor): 76% | inhibition at 1 µM [1]: 25% | inhibition at 1 µM [2]: -5% | α1 [%] (adrenergic α1 receptor): 78% | inhibition at 1 µM [3]: 92% | inhibition at 1 µM (dopaminergic D2 receptor): 58% | inhibition at 1 µM [4]: 15% | inhibition at 1 µM [5]: 96%

O=S(=O)(NCCCN1CCN(c2cccc3c2OCCO3)CC1)c1csc2ccccc12 [Compound 416, N-[3-[4-(2,3-Dihydro-1,4-benzodioxin-5-yl)piperazin-1-yl]propyl]benzothiophene-3-sulphonamide]
inhibition at 1 µM (dopaminergic D3 receptor): 56% | inhibition at 1 µM [1]: 58% | inhibition at 1 µM [2]: -4% | α1 [%] (adrenergic α1 receptor): 81% | inhibition at 1 µM [3]: 99% | inhibition at 1 µM (dopaminergic D2 receptor): 59% | inhibition at 1 µM [4]: 55% | inhibition at 1 µM [5]: 101%

O=S(=O)(NCCCN1CCN(c2cccc3c2OCCO3)CC1)c1ccc2c(c1)CCO2 [Compound 417, N-[3-[4-(2,3-Dihydro-1,4-benzodioxin-5-yl)piperazin-1-yl]propyl]-2,3-dihydrobenzofuran-5-sulphonamide]
inhibition at 1 µM (dopaminergic D3 receptor): 67% | inhibition at 1 µM [1]: -48% | inhibition at 1 µM [2]: -11% | α1 [%] (adrenergic α1 receptor): 73% | inhibition at 1 µM [3]: 62% | inhibition at 1 µM (dopaminergic D2 receptor): 68% | inhibition at 1 µM [4]: 24% | inhibition at 1 µM [5]: 100%

Cc1cccc(S(=O)(=O)NCCCN2CCN(c3cccc4[nH]c(=O)[nH]c34)CC2)c1 [Compound 426, 3-Methyl-N-[3-[4-(2-oxo-1,3-dihydrobenzimidazol-4-yl)piperazin-1-yl]propyl]benzenesulphonamide]
inhibition at 1 µM (dopaminergic D3 receptor): 94% | inhibition at 1 µM [1]: 20% | inhibition at 1 µM [2]: -18% | α1 [%] (adrenergic α1 receptor): 67% | inhibition at 1 µM [3]: 85% | inhibition at 1 µM (dopaminergic D2 receptor): 28% | inhibition at 1 µM [4]: -4% | inhibition at 1 µM [5]: 79%

O=C1COc2c(cccc2N2CCN(CCCCNS(=O)(=O)c3ccc4ccccc4c3)CC2)N1 [Compound 427, N-[4-[4-(3-oxo-4H-1,4-benzoxazin-8-yl)piperazin-1-yl]butyl]naphthalene-2-sulphonamide]
inhibition at 1 µM (dopaminergic D3 receptor): 104% | inhibition at 1 µM [1]: 49% | inhibition at 1 µM [2]: 13% | α1 [%] (adrenergic α1 receptor): 86% | inhibition at 1 µM [3]: 98% | inhibition at 1 µM (dopaminergic D2 receptor): 83% | inhibition at 1 µM [4]: 36% | inhibition at 1 µM [5]: 84%
